Data on two compounds can be found in patent US8975289B2, “Benzyl aralkyl ether compounds, method for preparing same, intermediate compounds, use of said compounds, method for treatment and/or prevention, pharmaceutical composition and medicament containing same” (priority 2009, dated 2015).

≈ marks a conversion by molar mass, not a printed value.

Format in all cases: cell-based
In one assay the test system is Trichophyton rubrum 455. The assay can be described thus: Broth microdilution MIC (M38-A), filamentous fungi, strain VIII. The following applies: for MIC: Trichophyton rubrum; for Resistance or sensitivity of the strain to the agent (in words): clinical isolate strain VIII. The method, then: (§1) For the experiments of the present invention, the dermatophyte-type fungi strains that were obtained from clinical isolates and laboratory isolates, as described in Table 2 as follows, were used:
(§2) The fungal strains were grown on agar potato medium in a sloping chute at a temperature of 30° C. for a period of 7 to 15 days.
(§3) For the experiments, the compound 1-[2-(2,4-dichlorophenyl)-2-{[4-(trifluoromethyl)benzyl]oxy}ethyl]-1H-imidazole (BL-123) in the form of its nitrate salt and miconazole nitrate were used. Both compounds were dissolved in dimethyl sulfoxide (DMSO) to match the final concentration of the compound equal to or less than 1%.
(§4) The methodology used to test the sensitivity of the agent was of broth microdilution according to the method described in Standard M38-A (Reference method for broth dilution tests for determining the sensitivity to antifungal therapy for filamentous fungi; NCCLS, volume 22 No. 16, USA, 2008) as follows.
(§5) The fungus was cultivated pursuant to item 4.1. To the tubes wherein the fungi were grown, 5 mL of saline solution were added in order to extract the fungi from the agar surface. Then, this homogeneous suspension was transferred to a new tube and the colony-forming units (CFUs) were quantified according to counting methods: (i) in Sabouraud dextrose agar plates and (ii) in a Neubauer chamber.
(§6) Then, the fungi strains listed in Table 2 were inoculated in duplicate in a 96-well plate. There were used inocula of from 2 to 6×10^3 CFU/mL of fungi, per well, in a total volume of 0.2 mL of RPMI-1640 (containing L-glutamine and without bicarbonate) buffered at pH 7.0 with MOPS (acid 3-(N-morpholine) 15 propanesulfonic). The procedure was performed in a laminar flow.
(§7) The compounds to be tested were added in a serial dilution, in duplicate, in final concentrations of 16 μg/mL; 8 μg/mL; 4 μg/mL; 2 μg/mL; 1 μg/mL; 0.5 μg/mL; 0.25 μg/mL; 0.125 μg/mL; 0.0625 μg/mL; or 0.03125 μg/mL in culture medium present in each well.
(§8) The incubation of fungi with these compounds was performed by 4, 5, 6 and 7 days at temperatures from 30 to 35° C.
(§9) The fungi quantification was carried out with the growth of fungi in each well being compared to the growth occurred in the negative control by means of a mirror reading. The negative control is represented by fungi grown in culture medium in the absence of the tested compounds. The methodology of this comparison is the numerical rating to which the microdilution well was submitted. In this methodology, value 4 corresponds to no reduction of growth, value 3 corresponds to a slight reduction in growth or approximately 75% of the growth of the negative control, value 2 corresponds to a standout reduction in growth or approximately 50% of growth of negative control; value 1 corresponds to a slight growth or approximately 25% of the growth of the negative control, and value 0 corresponds to optically clear or absence of growth.
(§10) In this experiment, the minimum inhibitory concentration (MIC) is considered as the lowest concentration of the agent capable of inhibiting at least 80% of the growth of colony-forming units (CFUs).

The test system of assay [1] is Trichophyton rubrum 28188. The assay can be described thus: Broth microdilution MIC (M38-A), filamentous fungi, strain V. As to the method:
as §1, §2, §3, §4, §5, §6, §7, §8
(§11) The fungi quantification was carried out with the growth of fungi in each well being compared to the growth occurred in the negative control by means of a mirror reading. The negative control is represented by fungi grown in culture medium in the absence of the tested compounds. The methodology of this comparison is the numerical rating to which the microdilution well was submitted. […]
In general terms: In broth dilution the organism is exposed to a series of concentrations in liquid medium.

Assay [2] relates to Staphylococcus epidermidis 12228. The assay can be described thus: Broth microdilution MIC (M7-A6), bacteria, strain XVII. Conditions: Staphylococcus epidermidis; strain XVII 12228, 24 hours incubation; read-out: MIC. The method, then: For the experiments of the present invention (i) yeast strains obtained from clinical isolates and laboratory isolates, and (ii) bacterial strains obtained from laboratory isolates were used, as described in Table 5 as follows. […] The compounds were dissolved in dimethyl sulfoxide (DMSO) to match the final concentration of the compound equal to or less than 1%. The methodology used to test the sensitivity of the agent was broth microdilution according to the method described in Standard M7-A6 (Methodology of sensitivity tests to antimicrobial agents by dilution for bacteria with aerobic growth-6th Edition: NCCLS, volume 23, No. 2, USA, 2003), as follows. […] Then the suspensions were diluted in Mueller Hinton culture medium to a final concentration of 5×10^4CFU/mL. The diluted suspensions were inoculated in 0.1 mL in duplicates in […] plates. The procedure was performed in a laminar flow. […] Incubation of fungi with these compounds was carried out for 24 hours at a temperature of 30 to 35° C. […] We have agreed in this experiment that the turbid medium is the result of microbial growth and the presence of deposit and a clear medium represents the absence of microbial growth. The minimum inhibitory concentration (MIC) was defined as the lowest tested drug concentration that prevents any degree of bacterial growth.

Assay [3] concerns Trichophyton mentagrophytes 2. The assay can be described thus: Broth microdilution MIC (M38-A), filamentous fungi, strain II. As to the method: as §1, §2, §3, §4, §5, §6, §7, §8, §11
Assay [4] relates to Candida parapsilosis 22019. The assay can be described thus: Broth microdilution MIC (M27-A2), yeast, strain XV. Conditions: strain XV 22019, 48 hours incubation; read-out: MIC. The method, then: (§12) For the experiments of the present invention (i) yeast strains obtained from clinical isolates and laboratory isolates, and (ii) bacterial strains obtained from laboratory isolates were used, as described in Table 5 as follows. The yeast strains were grown in culture medium Sabouraud Dextrose Agar maintained at a temperature of 35° C. for 48 hours. […] The compounds were dissolved in dimethyl sulfoxide (DMSO) to match the final concentration of the compound equal to or less than 1%. The methodology used to test the sensitivity of the agent was broth microdilution according to the method described in Standard M27-A2 (Reference method for broth dilution tests to determine the sensitivity of yeasts to antifungal therapy-second edition, NCCLS, volume 22 number 15, USA, 2002) as follows. […] Then the suspensions were diluted in culture medium RPMI-1640 (buffered with MOPS 0.165 mol/l) at a final concentration of 50 to 2500 CFU/mL. The diluted suspensions were inoculated in duplicate in a 96-well plate. The procedure was performed in a laminar flow. […] The incubation of fungi with these compounds was carried out for 48 hours at temperature of 30 to 35° C. […] We have agreed in this experiment that the turbid medium is the result of microbial growth and the presence of deposit and a clear medium represents the absence of microbial growth. The minimum inhibitory concentration (MIC) was defined as the lowest tested drug concentration that prevents any degree of […] growth.

The subject of assay [5] is Trichophyton verrucosum 381. The assay can be described thus: Broth microdilution MIC (M38-A), filamentous fungi, strain VII. Conditions: for MIC: Trichophyton verrucosum; for Resistance or sensitivity of the strain to the agent (in words): clinical isolate strain VII. As to the method:
as §1, §2, §3, §4, §5, §6, §7, §8, §9, §10

Another assay relates to Candida albicans 10231. The assay can be described thus: Broth microdilution MIC (M27-A2), yeast, strain XIV. Conditions: Candida albicans; strain XIV 10231, 48 hours incubation; read-out: MIC. As to the method: as §12
Where [6] appears, read: 96 h, strain VIII 455, reading Day 4, average of four experiments.
Where [7] appears, read: 168 h, strain VIII 455, reading Day 7, average of four experiments.
Setting [8] is: 96 h, strain V 28188, reading Day 4, average of four experiments.
Where [9] appears, read: 168 h, strain V 28188, reading Day 7, average of four experiments.
[10] abbreviates: 96 h, strain II 2, reading Day 4, average of four experiments.
Where [11] appears, read: 168 h, strain II 2, reading Day 7, average of four experiments.
Setting [12] is: 96 h, strain VII 381, reading Day 4, average of four experiments.
[13] abbreviates: 168 h, strain VII 381, reading Day 7, average of four experiments.

In the case of `FC(F)(F)c1ccc(COC(Cn2ccnc2)c2ccc(Cl)cc2Cl)cc1` (centres unmarked) [BL-123, 1-[2-(2,4-dichlorophenyl)-2-{[4-(trifluoromethyl)benzyl]oxy}ethyl]-1H-imidazole], the MIC (as a rule, the least concentration at which growth counts as inhibited) against Trichophyton rubrum 455 (setting [6]) is 4 µg/mL (≈ 9.63 µM); in the assay with Trichophyton rubrum 455 (setting [7]), 8 µg/mL (≈ 19.3 µM); in assay [1] (setting [8]), 0.03 µg/mL (≈ 0.0722 µM); in assay [1] (setting [9]) it was 0.03 µg/mL (≈ 0.0722 µM); in assay [2], 4 µg/mL (≈ 9.63 µM); in assay [3] (setting [10]) it was 4 µg/mL (≈ 9.63 µM). Besides, the minimum inhibitory concentration (MIC) in assay [3] (setting [11]) is 4 µg/mL (≈ 9.63 µM); in assay [4], 4 µg/mL (≈ 9.63 µM); in assay [5] (setting [12]), 4 µg/mL (≈ 9.63 µM); in assay [5] (setting [13]), more than 16 µg/mL; in the assay on Candida albicans 10231 it was 8 µg/mL (≈ 19.3 µM). Moreover, the “Resistance or sensitivity of the strain to the agent (in words)” value (in the assay with Trichophyton rubrum 455; in assay [5]) was “sensitive” throughout.

Consider `Clc1ccc(COC(Cn2ccnc2)c2ccc(Cl)cc2Cl)c(Cl)c1` (centres unmarked) [Miconazole, miconazole, reference compound], for which the MIC in the assay on Trichophyton rubrum 455 (setting [6]) is more than 16 µg/mL; against Trichophyton rubrum 455 (setting [7]), more than 16 µg/mL; in assay [1] (setting [8]), 0.03 µg/mL (≈ 0.0721 µM); in assay [1] (setting [9]) it was 0.06 µg/mL (≈ 0.144 µM); in assay [2] it was 2 µg/mL (≈ 4.81 µM); in assay [3] (setting [10]), 1 µg/mL (≈ 2.4 µM). The MIC in assay [3] (setting [11]) is 1 µg/mL (≈ 2.4 µM); in assay [4], 2 µg/mL (≈ 4.81 µM); in assay [5] (setting [12]) it was more than 16 µg/mL; in assay [5] (setting [13]) it was more than 16 µg/mL; in the assay on Candida albicans 10231, 4 µg/mL (≈ 9.61 µM). The “Resistance or sensitivity of the strain to the agent (in words)” value (in the assay with Trichophyton rubrum 455; in assay [5]) was “resistant” each time.
